This is an account of results in patent publication US11419902B2, “Compositions comprising bacterial strains” (4D Pharma Research Limited, priority 2018, dated 2022).

For experiment [1], the system named is SKMEL31 melanoma cell line. Put plainly: Soft agar growth of SKMEL31 cell line. The class given is cell-based. The note with it: SKMEL31, added to MRx0029. As for the experimental part:
(§1) A mixture of 25 μL prewarmed (37° C.) 2× appropriate growth medium (EMEM for melanoma cell lines; DMEM high glucose for HT29) containing 20% FBS, 4 mM L-Glu, 2×NEAA, 0.6% sodium bicarbonate, 200 U/mL penicillin/streptomycin (Invitrogen), and 25 μL prewarmed (47° C.) 1.2% Noble Agar (A5431; Sigma Aldrich) were plated onto each well of a 96-well microplate to serve as a prelayer for the assay. Ten microliters of cell suspensions containing 0-2×10^3 cells were mixed with 25 μL 2× growth media and 35 μL 0.8% Noble Agar in a 96-well round-bottom polypropylene microplate and transferred to the 96-well microplate containing the solidified prelayers. […] They left to grow in the humidified 37° C. incubator with 5% CO2 for 1-2 weeks before soft agar growth was scored using the CytoSelect 96 well cell transformation assay (CBA-130; Cell Biolabs) according to the manufacturer's protocol. Cell growth was measured using a Tecan Infinite F200 Pro Series Multi-Well Plate Reader (Tecan Biosystems), with excitation at 485 nm and emission at 530 nm. […]
(§2) The effects of the following treatments were assessed on the SKMEL31 melanoma cell line (heterozygous for BRAF V600E): (1) MRx0029; (2) Vemurafenib (VEMU) in YFCA+ medium; (3) VEMU and MRx0029; (4) Azacytidine-C (Aza-c) in YFCA+ medium; (5) Aza-c and MRx0029; (6) VEMU, Aza-c and MRx0029.

Experiment [2] deals with SKMEL31 melanoma cell line. Put plainly: Clonogenic survival of SKMEL31 cell line. The note with it: SKMEL31, added to MRx0029. Type of experiment: cell-based. Here is the method:
(§3) Cells were trypsinized and 200 cells/well were seeded in 12-well plates. After 48 h cells were treated with the appropriate drugs in absence (YCFA+) or presence of 10% bacterial supernatant and were re-fed every three days. On day 21 after seeding, cells were fixed in ice-cold methanol and stained with Crystal Violet blue. […] were counted and survival fraction was calculated as number of colonies divided by the number of plated cells (plating efficiency) of treated divided by the plating efficiency of control.
as §2

The subject of experiment [3] is 451Lu melanoma cell line. Nature of the experiment: Soft agar growth of 451Lu cell line. The class given is cell-based. The conditions noted are these: added to MRx0029. As for the experimental part: as §1
The effects of the following treatments were assessed on the 451Lu melanoma cell line (V600E oncogenic mutation in BRAF): (1) MRx0029; (2) Vemurafenib (VEMU) in YFCA+ medium; (3) VEMU and MRx0029; (4) Azacytidine-C (Aza-c) in YFCA+ medium; (5) Aza-c and MRx0029; (6) VEMU, Aza-c and MRx0029.

Experiment [4] has as its system HT29 colorectal cancer cell line. Put plainly: Clonogenic survival of HT29 cell line. Type of experiment: cell-based. The conditions noted are these: HT29, added to MRx0029. As for the experimental part: as §3
The effects of the following treatments were assessed on the HT29 colorectal cancer cell line (V600E oncogenic mutation in BRAF): (1) MRx0029; (2) Vemurafenib (VEMU) in YFCA+ medium; (3) VEMU and MRx0029; (4) Azacytidine-C (Aza-c) in YCFA+ medium; (5) Aza-c and MRx0029; (6) VEMU, Aza-c and MRx0029.

Experiment [5] deals with IL-8. Nature of the experiment: IL-8 secretion by differentiated HT29-mtx cells. Type of experiment: cell-based. The conditions noted are these: 24 h, vs untreated and YCFA+-treated cells. The source says: The ability of MRx0029 to cause any intestinal barrier dysfunction was investigated. HT29-mtx epithelial, mucin-producing cell monolayers were used as an in vitro model to evaluate gut barrier disruption and immune stimulation following treatment with MRx0029.

Experiment [6] has as its system IL-8. Put plainly: IL-8 secretion in U373 cells treated with SCFAs or supernatant fractions (ELISA). The conditions noted are these: U373 cells pre-treated 1 h with 1 μg/ml LPS, increasing concentrations. Type of experiment: cell-based, Human. Here is the method: Human glioblastoma astrocytoma cell line (U373), were maintained in 25 ml MEME 4.5 g/L D-glucose supplemented with 10% heat-inactivated FBS, 4 mM L-Glutamine, 100 U/ml penicillin, 100 μg/ml streptomycin and 5 μg/ml plasmocin, 1% Non-Essential Amino Acids, 1% Sodium Pyruvate (referred to as full growth media).
U373 cells were prepared as described above. Cells were pre-treated for 1 h with 1 μg/ml LPS indicated above and incubated at 37° C. and 5% CO2. After 1 h pre-incubation, cells were removed from CO2 incubator and treated with increasing concentration of fresh prepared Sodium Butyrate (SB), Sodium Valerate (SV) and Hexanoic Acid (HA).
U373 cells were prepared as described above. Cells were pre-treated for 1 h with 1 μg/ml LPS as indicated above. Afterwards, cells were removed from CO2 incubator and treated with 100 μl of the different fractions. Fractions from media were used as controls. Cell-free supernatants were collected 24 h after treatment and analysed by ELISA for IL-8 secretion (as outlined above).
Background: ELISA stands for enzyme-linked immunosorbent assay.

The test system of experiment [7] is HDAC. Nature of the experiment: HDAC inhibition on whole HT-29 cells. Type of experiment: cell-based. As for the experimental part:
(§4) Pure cultures of bacteria were grown anaerobically in YCFA+ broth until they reached their stationary growth phase. Cultures were centrifuged at 5,000×g for 5 minutes and the cell-free supernatant (CFS) was filtered using a […] (Millipore, UK). 1 mL aliquots of the CFS were stored at −80° C. until use. Sodium butyrate, hexanoic and valeric acid were obtained from Sigma Aldrich (UK) and suspensions were prepared in YCFA+ broth.
(§5) To investigate which metabolites were responsible for the strain-induced HDAC inhibition, different concentrations of hexanoic acid, valeric acid and sodium butyrate were measured for their HDAC inhibition on whole HT-29 cells and on HT-29 cell lysate.

The subject of experiment [8] is HDAC. Nature of the experiment: HDAC inhibition on HT-29 cell lysate. The class given is biochemical. Here is the method: as §4, §5

On to `Nc1ncn([C@@H]2O[C@H](CO)[C@@H](O)[C@H]2O)c(=O)n1` [Aza-c, Azacytidine-C], for which the “effect on soft agar growth inhibition by MRx0029” value in experiment [1] was “improved”; in experiment [3], “enhanced soft agar growth inhibition by MRx0029”. Further, the “effect on clonogenic survival inhibition by MRx0029” value in experiment [2] is “improved”. The “effect on inhibition of clonogenic survival by MRx0029” value in experiment [4] is on record as “improved the effects of MRx0029 in inhibiting clonogenic survival”.

Turning to `CCCCCCCCCCCCCC(=O)O[C@@H]1[C@@H](C)[C@@]2(O)[C@@H](C=C(CO)C[C@]3(O)C(=O)C(C)=C[C@@H]23)[C@@H]2C(C)(C)[C@]12OC(C)=O` [PMA, phorbol 12-myristate-13-acetate, reference compound], in experiment [5], the “secretion of IL-8” value was “secreted a significant amount of IL-8”.

For the compound `CCCCC(=O)[O-].[Na+]` [SV, sodium valerate], the “LPS-induced secretion of IL-8” value in experiment [6] is given as “increased LPS-induced secretion of IL-8”.

In the case of `CCCCCC(=O)O` [hexanoic acid], the “HDAC inhibition on whole HT-29 cells” value in experiment [7] was “did not show significant inhibitory activity”. For the same compound, the “HDAC inhibition on HT-29 cell lysate” value in experiment [8] is recorded as “did not show significant inhibitory activity”. Further, the “LPS-induced secretion of IL-8” value in experiment [6] is listed as “did not inhibit IL-8 secretion”.

Turning to `CCCC(=O)[O-].[Na+]` [sodium butyrate], in experiment [7], the “HDAC inhibition on whole HT-29 cells” value is “significant (P<0.05) inhibition of HDAC activity”. In experiment [8], the “HDAC inhibition on HT-29 cell lysate” value is “significant (P<0.05) inhibition of HDAC activity”. The “LPS-induced secretion of IL-8” value in experiment [6] was “increased LPS-induced secretion of IL-8”.

For `CCCCC(=O)O` [valeric acid], the “HDAC inhibition on whole HT-29 cells” value in experiment [7] was “inhibited HDAC activity”. In addition, the “HDAC inhibition on HT-29 cell lysate” value in experiment [8] is “inhibited HDAC activity”.
